# Source: US20060194259A1, “Method for isolating an allosteric effector of a receptor” (priority 2002, published 2006)
# Tests used:
# [1] = molecular target: T1, receptor EGFP-NK2R (UniProt P16610); test: Association kinetics of NKA-Bo with EGFP-NK2R by fluorescence energy transfer (rapid mixing); format: binding; set-up: % al (max): maximum value observed for the increase in amplitude of the rapid dissociation rate; ns = n; other: 20 nM of NK; % al (at 10 μM); other: compou; fused on or other part: EGFP fused to the receptor as FRET donor
# T1 sequence (P16610 1-390): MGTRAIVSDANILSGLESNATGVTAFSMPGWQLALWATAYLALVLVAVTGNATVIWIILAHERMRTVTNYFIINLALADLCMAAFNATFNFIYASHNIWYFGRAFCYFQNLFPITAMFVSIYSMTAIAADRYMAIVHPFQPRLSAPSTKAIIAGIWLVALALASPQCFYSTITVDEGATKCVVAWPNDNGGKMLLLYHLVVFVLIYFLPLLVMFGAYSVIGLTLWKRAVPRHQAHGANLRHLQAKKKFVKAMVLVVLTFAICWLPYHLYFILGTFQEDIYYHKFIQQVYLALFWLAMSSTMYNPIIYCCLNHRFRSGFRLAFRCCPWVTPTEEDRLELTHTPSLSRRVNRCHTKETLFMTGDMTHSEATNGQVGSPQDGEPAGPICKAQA
# From the text: Association (FIG. 4A): HEK 293 cells expressing the receptor EGFP-NK2R (NK2R marked with GFP) are put into suspension at a concentration of 2,000,000 cells/ml in Hepes physiological buffer (in mM: 137.5 NaCl; 1.25 MgCl2; 1.25 CaCl2; 6 KCl; 5.6 glucose; 10 Hepes; 0.4 NaH2PO4; 1% BSA (w/v); pH 7.4) and arranged in one of the reservoirs of the rapid mixing device. […] The observation chamber is arranged in a SPEX fluorolog 3 spectrofluorimeter. The temperature of the reservoir of the syringes as well as of the mixing and observation chamber is fixed at 21° C. The excitation wavelength of the observation chamber is fixed at 470 nm, and the fluorescence emission wavelength is fixed at 510 nm. The sampling frequency of the experimental points is fixed at 50 Hz (1 point every 20 msec). The content of the reservoirs is driven towards the mixing and observation chamber using a pneumatic device allowing a flow rate of 4 ml/sec and the evolution of the mixture is recorded continuously from the moment of stopping of the thrust of the pistons of the reservoirs. The reaction of association of NKA-Bo with the receptor EGFP-NK2R is detected in the form of a reduction in the intensity of fluorescence of the GFP carried by the receptor NK2R. The experimental trace is adjusted by a multiexponential curve of type y=λ1 exp (−k1app×T)+λ2 exp (−k2app×T)+“straight”, where λ1 and λ2 are the amplitudes of the rapid and slow relaxations, k1app and k2app are the apparent rate constants of rapid and slow association, T is time and “straight” is a mathematical correction of the signal drift. The values of λ1, λ2, k1app, k2app for a final concentration of NKA-BO of 100 nM are respectively 67%; 32%; 0.6 sec^−1 and 0.03 sec^−1. The correlation coefficient of the adjustment of the experimental curve is R=0.989.
# The rapid binding of NKA-Bo, recorded at a concentration of 20 nM using the rapid mixing equipment, is broken down into a sum of two exponentials the rates (kapp) of which differ by a factor of 10. The rapid binding of NKA-Bo (kapp=0.095 sec^−1) represents 44% of the total binding signal, in the absence of A11 (50 μM), whereas it represents 52% of the total signal in the presence of A11. The slow binding is carried out in both cases with an apparent rate (kapp) equal to 0.0095 sec^−1, and an amplitude equal to […] in the absence of A11, and 48% in the presence of A11.
# [2] = molecular target: T1, receptor EGFP-NK2R; test: Dissociation kinetics of NKA-Bo bound to EGFP-NK2R by fluorescence energy transfer; format: binding; set-up: % al (max): maximum value observed for the increase in amplitude of the rapid dissociation rate; ns = n; other: 20 nM of NK; % al (at 10 μM); other: compou; fused on or other part: EGFP fused to the receptor as FRET donor
# Protocol: Dissociation (FIG. 4B): HEK 293 cells expressing the receptor EGFP-NK2R are put into suspension at a concentration of 1,000,000 cells/ml in Hepes physiological buffer (in mM: 137.5 NaCl; 1.25 MgCl2; 1.25 CaCl2; 6 KCl; 5.6 glucose; 10 Hepes; 0.4 NaH2PO4; 1% BSA (w/v); pH 7.4) and arranged in a 1 ml cuvette equipped with a magnetic stirrer on the cuvette holder of a SPEX fluorolog 3 spectrofluorimeter.
# (§1) The amplitude of each relaxation is then given by the adjustment of the experimental traces.
# [3] = system: cells not expressing the EGFP-NK2R receptor; test: Calcium response on cells not expressing the receptor; format: cell-based; set-up: key: ns: not significant; ?: uniterpretable; details: Table 1
# [4] = molecular target: T1, receptor EGFP-NK2R; test: Reversion of the binding of NKA-Bo to EGFP-NK2R by fluorescence energy transfer; set-up: % al (max): maximum value observed for the increase in amplitude of the rapid dissociation rate; ns = n; other: 20 nM of NK; % al (at 10 μM); other: compou; fused on or other part: EGFP fused to the receptor as FRET donor; details: 20 nM NKA-Bo; increasing concentration of compound; 100% = NKA 10 μM
# From the text: as §1
# [5] = molecular target: T2, receptor EGFP-NK2R (Homo sapiens, UniProt P21452); test: Calcium response caused by NKA 4-10 TR7 in HEK 293 cells expressing EGFP-NK2R (indo-1); format: cell-based; details: read-out: 50%-effective dose of NKA 4-10 TR7 for the calcium response; without 805
# T2 sequence (P21452 1-398): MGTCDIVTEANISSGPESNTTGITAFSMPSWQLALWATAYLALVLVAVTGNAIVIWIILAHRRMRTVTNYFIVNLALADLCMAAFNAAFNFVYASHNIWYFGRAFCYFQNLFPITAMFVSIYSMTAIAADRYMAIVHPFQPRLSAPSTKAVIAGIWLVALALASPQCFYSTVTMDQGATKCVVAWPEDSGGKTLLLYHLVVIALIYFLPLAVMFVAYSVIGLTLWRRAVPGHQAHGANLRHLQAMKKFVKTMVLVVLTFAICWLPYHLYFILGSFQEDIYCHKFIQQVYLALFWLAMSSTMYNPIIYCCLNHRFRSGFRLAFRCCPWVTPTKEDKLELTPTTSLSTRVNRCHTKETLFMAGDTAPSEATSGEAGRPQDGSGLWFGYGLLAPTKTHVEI
# Protocol: The cells are put into suspension at a rate of 500,000 cells/ml in Hepes buffer and arranged in a spectrofluorimeter cuvette. The excitation wavelength is fixed at 355 nm and the emission is recorded at […].
# [6] = molecular target: T2, receptor EGFP-NK2R; test: Dissociation of NKA4-10 TR7 from EGFP-NK2R by fluorescence energy transfer; format: binding; details: 10° C.; without 805
# Protocol: (§2) The x-axis represents time in seconds and the y-axis represents fluorescence.
# (§3) In the presence of 10 μM of 805, an acceleration of the dissociation is observed characterized by a modification of the amplitudes of the rapid (88%) and slow (12%) dissociation stages.
# [7] = molecular target: T1, receptor EGFP-NK2R; test: as above; format: binding; set-up: % al (max): maximum value observed for the increase in amplitude of the rapid dissociation rate; ns = n; other: 20 nM of NK; % al (at 10 μM); other: compou; fused on or other part: EGFP fused to the receptor as FRET donor; details: 10° C.; without 805
# Protocol: as §2, §3
# [8] = in the presence of 50 μM compound, dissociation by non-fluorescent NKA
# [9] = 20 nM NKA-Bo, 10 μM SR 48968, no effector
molecule,measurement,setting,value
"N#CCN(Cc1ccc(N)cc1)Cc1ccc2ccccc2c1 [A11, [(4-Amino-benzyl)-naphthalen-2-ylmethyl-amino]-acetonitrile]","rapid binding of NKA-Bo, % of the total binding signal","[1]; 20 nM NKA-Bo, in the presence of A11 (50 μM), 44% in its absence",52%
same,"slow binding of NKA-Bo, amplitude","[1]; 20 nM NKA-Bo, in the presence of A11 (50 μM), 66% in its absence",48%
same,% al (max): maximum value observed for the increase in amplitude of the rapid dissociation rate,"[2]; Table 1, ns = not significant",≧90%
same,fraction of receptors in the low-affinity state,"[2]; at 100 μM of effector, approximately 25% in the absence of effector",~100%
same,effect on the dissociation kinetics of NKA-Bo,[2]; dissociation by non-fluorescent NKA in the presence of compound,accelerating the dissociation rate
same,amplitude of the rapid dissociation of NKA-Bo (% of total signal),[2]; [8],78%
same,amplitude of the slow dissociation of NKA-Bo (% of total signal),[2]; [8],22%
same,EC50,"[2]; read-out: EC50 (μM): concentration of compound causing a 50% increase (relative to the maximum value) in the percentage of the amplitude of the rapid dissociation rate, Table 1, dissociation of NKA-Bo from EGFP-NK2R, ns = not significant",38 to 44 µM
same,Ca Rep.: ability to evoke a calcium response on cells not expressing the EGFP-NK2R receptor,[3],ns
same,fraction of the NKA-Bo bound to its site displaced by the compound,[4],29%
CSCC[C@H](NC(=O)[C@H](CC(C)C)NC(=O)CNC(=O)[C@@H](NC(=O)[C@H](Cc1ccccc1)NC(=O)[C@H](CO)NC(=O)[C@H](CC(=O)O)NC(=O)[C@@H](NC(=O)[C@H](CCCCN)NC(=O)[C@H](Cc1c[nH]cn1)NC(=O)CCc1ccc2n1[B-](F)(F)[N+]1=C(c3ccccc3)C=C(c3ccccc3)C1=C2)[C@@H](C)O)C(C)C)C(N)=O [NKA-Bo],"k1app, apparent rate constant of rapid association","[1]; NKA-BO 100 nM final, 21° C.",0.6 s⁻¹
same,"k2app, apparent rate constant of slow association","[1]; NKA-BO 100 nM final, 21° C.",0.03 s⁻¹
same,"λ1, amplitude of the rapid association relaxation","[1]; NKA-BO 100 nM final, 21° C.",67%
same,"λ2, amplitude of the slow association relaxation","[1]; NKA-BO 100 nM final, 21° C.",32%
same,kapp of the rapid binding of NKA-Bo,[1]; NKA-Bo 20 nM,0.095 s⁻¹
same,kapp of the slow binding of NKA-Bo,"[1]; NKA-Bo 20 nM, with or without A11",0.0095 s⁻¹
same,"λ1, amplitude of rapid dissociation of NKA-Bo",[2]; [9],40%
same,"λ2, amplitude of slow dissociation of NKA-Bo",[2]; [9],58%
NKA4-10 TR7: truncated neurokinin NKA4-10 marked in position 7 by Texas Red,EC50,[5],~0.02 µM
same,amplitude of the rapid dissociation of NKA4-10 TR7,[6],58%
same,amplitude of the slow dissociation of NKA4-10 TR7,[7],42%
